Counter-ions that a name gives are not always drawn.
Assays:
[1] = target: Full-length PRMT5 enzyme co-expressed with His6-MEP50 (Homo sapiens (Human), UniProt O14744); experiment: PRMT5 Biochemical Assay; settings: Transcreener EPIGEN methyltransferase assay, histone H4 derived peptide substrate, 4 hours at 37 degree Celsius
Method: Compounds of the invention may be tested for in vitro activity in the following assay:
A histone H4 derived peptide is used as substrate (amino acid sequence: […]NH2). Full-length PRMT5 enzyme (NCBI Reference sequence NP_006100.2) was co-expressed with His6-MEP50 in insect cells and purified via Nickel immobilized metal affinity and gel filtration chromatography (“the enzyme”).
The 6 μL reactions are run in Greiner brand black 384-well low volume assay plates. All reactions contained assay buffer (phosphate buffered saline, 0.01% (v/v) Tween-20, 0.01% (w/v) albumin from chicken egg white, 1 mM Dithiothreitol, 1 μM peptide substrate, 1 μM S-Adenosyl methionine, and 15 ng/reaction enzyme, with the enzyme being omitted from negative control reactions. Compounds were added in a volume of 100 nL from dilution series prepared in DMSO, positive and negative control reactions receiving the same volume DMSO without compound. The plates were sealed with adhesive seals and incubated for 4 hours at 37 degree Celsius. Reaction progress was measured using the Transcreener™ EPIGEN methyltransferase assay (BellBrook Labs, Madison, Wis.) as recommended by the manufacturer. To each reaction 2 μL detection mix were added, containing coupling enzymes, fluorescence polarisation tracer, and AMP antibody. Plates were incubated for 90 minutes before being read on a PerkinElmer EnVision™ plate reader in fluorescence polarisation mode. IC50 values were obtained from the raw readings by calculating percent inhibition (%1) for each reaction relative to controls on the same plate (% I=(I−CN)/(CP−CN) where CN/CP are the averages of the negative/positive reactions, respectively), then fitting the %1 data vs. compound concentration [I] to % I=(A+((B−A)/(1+((C/[I])^D)))) where A is the lower asymptote, B is the upper asymptote, C is the IC50 value, and D is the slope.

[2] = system: symmetrical dimethylation of arginine (Di-Methyl Histone H4 Arginine 3) in cell line TE11; experiment: PRMT5 Biomarker Assay; assay type: cell-based; settings: Homo sapiens, TE-11; TE11 cells, 72 hours incubation, mean Alexa647-related intensity per cell
Method: PRMT5 Biomarker Assay Compounds of the invention may be tested for potency to inhibit symmetrical dimethylation of arginine in the following assay: The cell line TE11 was seeded at a density of 6,000 cells per well in 96 well optical quality tissue culture plates in DME medium and 10% foetal bovine serum, and allowed to adhere for 5 hours under standard culture conditions (37 degree Celsius, 5% CO2). Compound dilutions prepared in DMSO were added to the medium, with negative control wells reserved for treatment with DMSO only and maximum inhibition controls receiving a potent PRMT5 inhibitor compound at 1 μM concentration. After incubation for 72 hours, the cells were fixed with 3.7% formaldehyde in PBS for 30 minutes at room temperature, washed with phosphate buffer saline and blocked with Odyssey blocking buffer (LI-COR, Lincoln, Nebr.). Rabbit anti-Di-Methyl Histone H4 Arginine 3 specific antibody (Epigentek) in Odyssey blocking buffer was added and incubated for 14 hours at 4 degree Celsius. After washing, anti-rabbit secondary antibody labelled with Alexa647 dye (LifeTechnologies) and Hoechst 33342 (1 μg/mL, SigmaAldrich) were added for 1 hour incubation. Plates were washed and read on a PerkinElmer Envision 2103 in fluorescence intensity scanning mode (24 scans across the well area). The plates were imaged on a PerkinElmer Phenix high content imaging platform. Using a Columbus image analysis pipeline, individual nuclei were located by Hoechst 33342 stain and the methylation level was calculated from the Alexa647-related intensity in the same area. IC50 values were obtained from the mean Alexa647-related intensity per cell by calculating percent inhibition (%1) for each well relative to controls on the same plate (% l=(1-CN)/(CP−CN) where CN/CP are the averages of the negative/maximum inhibition controls, respectively), then fitting the %1 data vs. compound concentration [I] to % I=(A+((B−A)/(1+((C/[I])^D)))) where A is the lower asymptote, B is the upper asymptote, C is the IC50 value, and D is the slope.

Chain of Full-length PRMT5 enzyme co-expressed with His6-MEP50 (O14744 whole entry): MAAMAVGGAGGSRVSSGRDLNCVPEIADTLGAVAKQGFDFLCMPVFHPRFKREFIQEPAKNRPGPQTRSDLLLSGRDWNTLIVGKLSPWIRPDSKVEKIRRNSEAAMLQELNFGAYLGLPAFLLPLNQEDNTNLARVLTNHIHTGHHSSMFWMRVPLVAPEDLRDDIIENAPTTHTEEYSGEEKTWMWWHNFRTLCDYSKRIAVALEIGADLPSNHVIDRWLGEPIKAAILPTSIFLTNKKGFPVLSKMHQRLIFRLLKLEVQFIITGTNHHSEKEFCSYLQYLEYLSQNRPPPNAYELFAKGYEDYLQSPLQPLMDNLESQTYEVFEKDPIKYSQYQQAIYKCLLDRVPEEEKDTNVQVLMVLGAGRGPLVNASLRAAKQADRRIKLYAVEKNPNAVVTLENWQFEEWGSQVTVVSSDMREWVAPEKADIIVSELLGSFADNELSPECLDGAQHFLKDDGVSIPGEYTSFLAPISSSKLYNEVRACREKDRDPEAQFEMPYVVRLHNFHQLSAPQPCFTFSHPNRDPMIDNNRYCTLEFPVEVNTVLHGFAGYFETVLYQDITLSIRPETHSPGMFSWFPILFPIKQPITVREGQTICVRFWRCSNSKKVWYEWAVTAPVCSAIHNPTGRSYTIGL
Chain of Full-length PRMT5 enzyme co-expressed with His6-MEP50 (Q9BQA1 whole entry partner): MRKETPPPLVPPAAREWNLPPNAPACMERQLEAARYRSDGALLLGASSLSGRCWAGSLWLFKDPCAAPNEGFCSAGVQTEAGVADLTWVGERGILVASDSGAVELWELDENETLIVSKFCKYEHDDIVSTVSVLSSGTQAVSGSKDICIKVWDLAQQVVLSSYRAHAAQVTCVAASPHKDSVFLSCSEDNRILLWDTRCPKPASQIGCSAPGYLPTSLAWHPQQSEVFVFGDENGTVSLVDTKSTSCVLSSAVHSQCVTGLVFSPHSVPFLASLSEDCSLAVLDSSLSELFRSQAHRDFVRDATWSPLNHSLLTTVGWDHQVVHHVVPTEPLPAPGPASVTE

Row | SMILES | IC50 [1] [nM] | IC50 [2] [nM]
1 | CCOc1nc(N2CCN(C(=O)OC)CC2)ccc1C(=O)NC[C@@H](O)[C@@H]1Cc2ccccc2CN1 [Example 1, Methyl 4-(6-ethoxy-5-(((R)-2-hydroxy-2-((S)-1,2,3,4-tetrahydroisoquinolin-3-yl)ethyl)carbamoyl)pyridin-2-yl)piperazine-1-carboxylate dihydrochloride] | 37 | 0.2
2 | CCOc1nc(N2CCC(O)CC2)ccc1C(=O)NC[C@@H](O)[C@@H]1Cc2ccccc2CN1 [Example 2, 2-Ethoxy-N-((R)-2-hydroxy-2-((S)-1,2,3,4-tetrahydroisoquinolin-3-yl)ethyl)-6-(4-hydroxypiperidin-1-yl)nicotinamide dihydrochloride] | 102 | 23.3
3 | CCOc1nc(N2CCCOCC2)ccc1C(=O)NC[C@@H](O)[C@@H]1Cc2ccccc2CN1 [Example 3, 2-Ethoxy-N-((R)-2-hydroxy-2-((S)-1,2,3,4-tetrahydroisoquinolin-3-yl)ethyl)-6-(1,4-oxazepan-4-yl)nicotinamide dihydrochloride] | 70 | 5.6
4 | CCOc1nc(N2CCN(C(C)=O)CC2)ccc1C(=O)NC[C@@H](O)[C@@H]1Cc2ccccc2CN1 [Example 4, 6-(4-Acetylpiperazin-1-yl)-2-ethoxy-N-((R)-2-hydroxy-2-((S)-1,2,3,4-tetrahydroisoquinolin-3-yl)ethyl)nicotinamide dihydrochloride] | 26 | 1.3
5 | CC(=O)N1CCC(Oc2nccc(C(=O)NC[C@@H](O)[C@@H]3Cc4ccccc4CN3)c2Cl)CC1 [Example 5, 2-((1-Acetylpiperidin-4-yl)oxy)-3-chloro-N-((R)-2-hydroxy-2-((S)-1,2,3,4-tetrahydroisoquinolin-3-yl)ethyl)isonicotinamide dihydrochloride] | 26 | 6
6 | CCOc1nc(N2CCOCC2)ccc1C(=O)NC[C@@H](O)[C@@H]1Cc2ccccc2CN1 [Example 9, 2-Ethoxy-N—((R)-2-hydroxy-2-((S)-1,2,3,4-tetrahydroisoquinolin-3-yl)ethyl)-6-morpholinonicotinamide] | 251 | 31.5

The remaining lines, values ahead:

Row | IC50 [1] [nM] | IC50 [2] [nM] | SMILES
7 | 202 | 75.4 | CCOc1cnc(CC2CCN(C(C)=O)CC2)cc1C(=O)NC[C@@H](O)[C@@H]1Cc2ccccc2CN1 [Example 6, 2-((1-acetylpiperidin-4-yl)methyl)-5-ethoxy-N-((R)-2-hydroxy-2-((S)-1,2,3,4-tetrahydroisoquinolin-3-yl)ethyl)isonicotinamide dihydrochloride]
8 | 135 | 16.5 | CCOc1nc(OC2CCN(C(C)=O)CC2)ccc1C(=O)NC[C@@H](O)[C@@H]1Cc2ccccc2CN1 [Example 7, 6-((1-acetylpiperidin-4-yl)oxy)-2-ethoxy-N-((R)-2-hydroxy-2-((S)-1,2,3,4-tetrahydroisoquinolin-3-yl)ethyl)nicotinamide hydrochloride salt]
9 | 135 | 112 | CCOc1c(C(=O)NC[C@@H](O)[C@@H]2Cc3ccccc3CN2)ccnc1NC1CCN(C(C)=O)CC1 [Example 8, 2-((1-Acetylpiperidin-4-yl)amino)-3-ethoxy-N—((R)-2-hydroxy-2-((S)-1,2,3,4-tetrahydroisoquinolin-3-yl)ethyl)isonicotinamide Dihydrochloride Salt]
